{"source": "patent US20100048727A1", "about": "“PERFLUOROKETONE COMPOUNDS AND USES THEREOF” (priority 2007, published 2010)", "key": {"human GIVA cPLA2": {"biological_target": "T1, human GIVA cPLA2 (Homo sapiens, UniProt P47712)", "T1 sequence (P47712 1-749)": "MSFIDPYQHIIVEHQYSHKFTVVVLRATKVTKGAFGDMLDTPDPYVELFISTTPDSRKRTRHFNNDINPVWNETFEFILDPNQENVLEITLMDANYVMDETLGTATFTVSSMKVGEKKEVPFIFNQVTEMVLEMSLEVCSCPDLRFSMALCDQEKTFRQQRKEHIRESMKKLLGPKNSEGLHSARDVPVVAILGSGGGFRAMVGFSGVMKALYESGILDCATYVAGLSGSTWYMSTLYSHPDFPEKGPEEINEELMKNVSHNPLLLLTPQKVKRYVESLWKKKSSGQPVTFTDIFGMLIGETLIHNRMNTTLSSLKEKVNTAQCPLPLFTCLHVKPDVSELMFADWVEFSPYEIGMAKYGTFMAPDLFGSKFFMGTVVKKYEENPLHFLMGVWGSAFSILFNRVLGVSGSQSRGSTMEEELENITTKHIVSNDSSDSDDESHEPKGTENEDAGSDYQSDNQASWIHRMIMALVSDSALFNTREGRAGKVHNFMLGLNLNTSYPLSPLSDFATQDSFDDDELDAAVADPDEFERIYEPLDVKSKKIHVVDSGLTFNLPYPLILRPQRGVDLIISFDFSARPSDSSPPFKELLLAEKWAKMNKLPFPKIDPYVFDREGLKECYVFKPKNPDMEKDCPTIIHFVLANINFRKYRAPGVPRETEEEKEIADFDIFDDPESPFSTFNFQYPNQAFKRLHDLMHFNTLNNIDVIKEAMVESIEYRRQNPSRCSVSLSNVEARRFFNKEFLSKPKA", "test": "GIVA cPLA2 specific mixed micelle assay", "assay_type": "biochemical", "conditions": "0.091 mole fraction", "procedure": "(§1) Inhibition of phospholipase A2 by perfluoroketone compounds. […] (2002) J. Med. Chem. 45: 2891-2893; Kokotos, G. et al. (2004). J. Med. Chem. 47: 3615-3628). The standard GVIA iPLA2 activity assay utilizes DPPC/Triton™ X-100 mixed micelles at a ratio of 1:4 as previously described (Stephens D. et al. (2006). J. Med. Chem., 49: 2821-2828). GV sPLA2 activity was measured in an assay similar to the assays for GIVA cPLA2 and GVIA iPLA2."}, "GVIA iPLA2": {"biological_target": "T2, GVIA iPLA2 (Homo sapiens, UniProt O60733)", "T2 sequence (O60733 1-806)": "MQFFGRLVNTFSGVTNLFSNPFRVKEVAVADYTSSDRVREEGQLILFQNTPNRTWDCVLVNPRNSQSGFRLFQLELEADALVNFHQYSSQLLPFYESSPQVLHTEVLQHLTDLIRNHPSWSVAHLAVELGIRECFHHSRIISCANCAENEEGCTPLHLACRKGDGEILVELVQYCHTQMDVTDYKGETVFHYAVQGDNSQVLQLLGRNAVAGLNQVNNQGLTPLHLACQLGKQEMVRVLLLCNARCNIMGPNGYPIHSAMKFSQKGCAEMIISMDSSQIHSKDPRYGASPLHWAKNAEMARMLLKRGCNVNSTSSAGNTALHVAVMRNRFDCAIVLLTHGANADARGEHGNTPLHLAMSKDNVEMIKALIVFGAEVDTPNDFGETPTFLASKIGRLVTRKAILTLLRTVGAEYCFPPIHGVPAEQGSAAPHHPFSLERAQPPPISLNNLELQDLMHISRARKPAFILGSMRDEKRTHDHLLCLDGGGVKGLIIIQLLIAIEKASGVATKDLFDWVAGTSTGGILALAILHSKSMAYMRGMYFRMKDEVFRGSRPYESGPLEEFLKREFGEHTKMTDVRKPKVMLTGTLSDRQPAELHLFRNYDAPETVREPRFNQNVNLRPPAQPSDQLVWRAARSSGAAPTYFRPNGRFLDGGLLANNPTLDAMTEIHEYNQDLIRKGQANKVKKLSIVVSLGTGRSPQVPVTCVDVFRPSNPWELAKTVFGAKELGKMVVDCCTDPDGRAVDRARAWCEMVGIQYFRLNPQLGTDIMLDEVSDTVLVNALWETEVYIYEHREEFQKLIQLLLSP", "test": "standard GVIA iPLA2 activity assay (DPPC/Triton X-100 mixed micelles)", "assay_type": "biochemical", "conditions": "0.091 mole fraction; mean and standard error, n = 3", "procedure": "as §1"}}, "data": [{"smiles": "O=C(CCCCc1ccccc1)C(F)(F)C(F)(F)F", "note": "[FKGK11, 1,1,1,2,2-Pentafluoro-7-phenyl-3-heptanone]", "values": [{"measurement": "Average percent inhibition GIVA cPLA2 (class symbol)", "setting": "human GIVA cPLA2", "result": "N.D. (N.D. means compounds with less than 25% inhibition (or no detectable inhibition))"}, {"measurement": "Average percent inhibition GVIA iPLA2", "setting": "GVIA iPLA2", "result": "98 ± 16", "unit": "%"}]}]}
